Like-named read-outs stand apart in the source and are kept apart here.
Experiments:
[1] = system: CREB3L1; assay: CREB3L1 cleavage, immunoblot of membrane and nuclear fractions of Huh7 cells; format: cell-based, human; conditions: for amount of the nuclear form of CREB3L1 (cleavage of CREB3L1): Huh7 cells, compound alone
Source text: We fractionated human hepatoma Huh7 cells (6) into membrane and nuclear fractions, and used an antibody reacting against the NH2-terminal domain of CREB3L1 (3) to examine the cleavage of CREB3L1 through immunoblot analysis.

[2] = system: Huh7 cells; assay: Proliferation of Huh7 cells; format: cell-based, human
Description: (§1) Inasmuch as CREB3L1 was required for doxorubicin to induce expression of p21, a well-characterized inhibitor of the cell cycle (11), we determined whether CREB3L1 was also required for the drug to inhibit cell proliferation. […] These concentrations of doxorubicin were not enough to trigger apoptosis of Huh7 cells, which became apparent only when the cells were treated with 5 μM of the compound.

[3] = system: MCF-7 cells; assay: Proliferation of MCF-7 cells with or without CREB3L1 overexpression; format: cell-based, human; conditions: for IC50: Homo sapiens, MCF7, 48 h, treated 2 days, read-out: IC50 for doxorubicin; for proliferation (cell counting, cellular DNA content): 15 nM for 6 days
Description: (§2) If proteolytic activation of CREB3L1 is required for doxorubicin to inhibit cell proliferation, then the amount of CREB3L1 expressed in cancer cells may determine their sensitivity to doxorubicin. To test this hypothesis, we analyzed SV589 cells, an immortalized line of human fibroblasts (12), and MCF-7 cells, a line of human breast cancer cells (13). […] In this experiment, cells were treated with doxorubicin for 2 days. To determine the effect of CREB3L1 expression on proliferation of the cells treated with doxorubicin for a longer period of time, we incubated MCF-7 and MCF7/pCREB3L1(H) cells with 15 nM doxorubicin for 6 days.

[4] = system: MCF7; assay: MCF7 xenograft in athymic nude mice; format: in vivo; conditions: MCF7 overexpressing CREB3L1 vs without overexpression
Description: In particular, the relationship between CREB3L1 expression and doxorubicin sensitivity is confirmed in a study of 45 lines of breast cancer cells from ATCC Breast Cancer Cell Panel. […] The relationship between CERB3L1 expression and doxorubicin sensitivity is also confirmed in vivo by injection of MCF7 with or without overexpression of CREB3L1 into athymic nude mice. These mice are then treated with different doses of doxorubicin, confirming that the dose of doxorubicin required to shrink tumors produced from MCF7 cells overexpressing CREB3L1 are lower than those required to shrink tumors generated from those without the overexpression.

[5] = system: ceramide synthesis; assay: Ceramide synthesis, tritium-labeled palmitate incorporation in Huh7 cells; format: cell-based, human
Source text: RIP of membrane-bound transcription factors is known to be a signal transduction pathway that transfers signals from the ER to nucleus (5). […] Daunorubicin, a chemotherapeutic drug derived from doxorubicin, was reported to induce de novo synthesis of ceramide (15).

[6] = patients treated with the drug; cited from earlier work
[7] = system: histone γH2AX; assay: DNA breaks, histone γH2AX marker; format: cell-based
[8] = system: collagen 1a1 and p21; assay: Expression of CREB3L1 target genes in Huh7 cells; format: cell-based, human
Description: as §1

[9] = system: SV589 cells; assay: Growth inhibition of SV589 cells; format: cell-based, human; conditions: two siRNA duplexes
Description: as §2

[10] = system: human kidney tumor; assay: Xenograft of human kidney tumors in mice; format: in vivo
[11] = system: Huh7 cells; assay: Apoptosis of Huh7 cells; format: cell-based, human
Description: as §1

[12] = system: CREB3L1; assay: CREB3L1 cleavage in wild type and S1P- or S2P-deficient CHO cells; format: cell-based, Chinese Hamster
[13] = system: cell growth; assay: Requirement of CREB3L1 for inhibition of cell growth; format: cell-based
Source text: We then determined the relationship between doxorubicin-induced cleavage of CREB3L1 and DNA breaks caused by inhibition of topoisomerase. […] However, this effect was unaffected by knockdown of CREB3L1 expression.

[14] = Huh7 cells with CREB3L1 knockdown

With `CCCCCCCCCCCCC/C=C/[C@@H](O)[C@H](CO)NC(=O)CCCCC` [C6-ceramide] the “amount of the nuclear form of CREB3L1 (cleavage of CREB3L1)” value (“amount of the nuclear form of CREB3L1” below) [1] was “stimulated CREB3L1 cleavage” and the “inhibition of cell proliferation after CREB3L1 knockdown” value [2, 14] was “completely abolished the ability of C6-ceramide to inhibit cell proliferation”.
With `COc1cc([C@@H]2c3cc4c(cc3[C@@H](O[C@@H]3O[C@@H]5CO[C@@H](C)O[C@H]5[C@H](O)[C@H]3O)[C@H]3COC(=O)[C@H]23)OCO4)cc(OC)c1O` [etoposide] the “amount of the nuclear form of CREB3L1” value [1] was “failed to induce cleavage of CREB3L1”, the “effect of CREB3L1 knockdown on resistance” value [2, 14] was “did not increase their resistance” and the “effect of CREB3L1 overexpression on sensitivity” value ([3]; MCF7 cells overexpressing CREB3L1) was “did not increase their sensitivity”.
With `COc1cccc2c1C(=O)c1c(O)c3c(c(O)c1C2=O)C[C@@](O)(C(=O)CO)C[C@@H]3O[C@H]1C[C@H](N)[C@H](O)[C@H](C)O1` [doxorubicin, Doxorubicin] the “dose required to shrink tumors” value [4] was “lower”, the “tritium-labeled palmitate incorporated into ceramide” value [5] was “increased the amount of tritium-labeled palmitate incorporated into ceramide” and the “amount of the nuclear form of CREB3L1” value [1] was “markedly raised the amount of the nuclear form of CREB3L1”. For the same compound, the “concentration that blocks proliferation” value ([2]; Huh7-shCREB3L1 cells) was greater than 500 nM, the “clinically relevant concentration in the serum of patients” value [6] was less than 1 µM and the “DNA breaks (histone γH2AX)” value [7] was “induced appearance of histone γH2AX”. For the same compound, the “induction of collagen 1a1 and p21” value ([8]; Huh7-shCREB3L1 cells) was “markedly blunted”, the “expression of collagen 1a1 and p21” value ([8]; Huh7-shControl cells) was “induced the expression of collagen 1a1 and p21” and the “effect of CREB3L1 siRNA knockdown on sensitivity” value [9] was “more resistant”. For the same compound, the “effect compared with rapamycin” value ([10]; tumors expressing CREB3L1) was “better than rapamycin”, the tumor response ([10]; tumors expressing CREB3L1, dose about 7 times lower than clinical) was “profoundly inhibited” and the tumor response ([10]; tumors without CREB3L1 expression, dose about 7 times lower than clinical) was “did not respond”. For the same compound, the “doxorubicin sensitivity of kidney tumors” value ([10]; tumors without vs with CREB3L1 by 10H1 staining, day 3 to 21) was “much less doxorubicin sensitivity”, the IC50 ([3]; MCF7/pCREB3L1(H), 300-fold CREB3L1 overexpression) was roughly 1 nM and the IC50 ([3]; MCF7/pCREB3L1(L), 8-fold CREB3L1 overexpression) was 10 nM. The IC50 ([3]; parental MCF-7 cells) was 500 nM, the “proliferation (cell counting, cellular DNA content)” value ([3]; MCF7/pCREB3L1(H) cells) was “markedly blocked proliferation” and the “proliferation (cell counting, cellular DNA content)” value ([3]; MCF-7 cells) was “did not affect proliferation”. For the same compound, the “concentration at which apoptosis became apparent” value [11] was 5 µM, the “cleavage of CREB3L1 to the nuclear form” value ([12]; mutant CHO cells deficient in either S1P or S2P) was “failed to produce the nuclear form of CREB3L1” and the “cleavage of CREB3L1 to the nuclear form” value ([12]; wild type CHO cells) was “stimulated cleavage of CREB3L1”.
For bleomycin, the “requirement of CREB3L1 to inhibit cell growth” value [13] was “not required”.
With `CCCCCCC(=O)CCCCCC/C=C/C[C@@H](O)[C@H](O)[C@@](N)(CO)C(=O)O` [Myriocin] the “inhibition of doxorubicin-induced cleavage of CREB3L1” value ([1]; co-treatment with doxorubicin) was “inhibited doxorubicin-induced cleavage of CREB3L1 in a dose-dependent manner” and the “effect of co-treatment on cell sensitivity to doxorubicin” value ([2]; co-treatment with doxorubicin) was “rendered the cells more resistant to doxorubicin”.
In the case of `CC(=O)O[C@H]1C(=O)[C@@]2(C)[C@H]([C@H](OC(=O)c3ccccc3)[C@]3(O)C[C@H](OC(=O)[C@H](O)[C@@H](NC(=O)c4ccccc4)c4ccccc4)C(C)=C1C3(C)C)[C@]1(OC(C)=O)CO[C@@H]1C[C@@H]2O` [paclitaxel], the “requirement of CREB3L1 to inhibit cell growth” value [13] is reported as “not required”.
